# Tested on: EntC1
# Assay: ITC, EntC1
# Type: binding
# Settings: titration of EntC2 with EntC1
smiles,measurement,value
"CC[C@H](C)[C@H](NC(=O)CNC(=O)[C@H](CCCCN)NC(=O)[C@H](C)NC(=O)[C@H](CC(C)C)NC(=O)CNC(=O)[C@H](C)NC(=O)[C@@H](NC(=O)[C@H](Cc1ccccc1)NC(=O)[C@H](CC(=O)O)NC(=O)[C@H](Cc1ccc(O)cc1)NC(=O)[C@H](C)NC(=O)[C@@H]1CCCN1C(=O)[C@H](CCC(N)=O)NC(=O)[C@H](CC(C)C)NC(=O)[C@H](Cc1c[nH]c2ccccc12)NC(=O)[C@@H]1CCCN1C(=O)[C@H](CC(C)C)NC(=O)[C@H](Cc1c[nH]c2ccccc12)NC(=O)[C@H](CCCCN)NC(=O)CNC(=O)[C@@H]1CCCN1C(=O)CN)C(C)C)C(=O)NCC(=O)N[C@@H](CCCCN)C(=O)N[C@@H](CCC(=O)O)C(=O)NCC(=O)N[C@@H](CC(N)=O)C(=O)N[C@@H](CCCCN)C(=O)N[C@@H](CC(N)=O)C(=O)N[C@@H](CCCCN)C(=O)N[C@@H](Cc1c[nH]c2ccccc12)C(=O)N[C@@H](CCCCN)C(=O)N[C@@H](CC(N)=O)C(=O)N[C@H](C(=O)O)C(C)C (single isomer, unassigned) [EntC2]",binding to EntC1 (ITC),No binding

# Source: paper PMC12765074, “Mechanistic insights into enterocin C targeting the undecaprenyl phosphate recycling protein BacA” (The Journal of Biological Chemistry, 2025)
